Assay results: patent publication US11332472B2, “Substituted piperidines as inhibitors of ubiquitin specific protease 7” (LES LABORATOIRES SERVIER, priority 2017, dated 2022)

Target: T1, USP7 (Homo sapiens, UniProt Q93009, C315A)
T1 construct: 0.25 nM His-His-USP7 (aa208-560, [C315A]) was incubated with compound; His-His (N)
Assay: Inhibition of USP7 by Fluorescence Intensity (FLINT) readings, Ubiquitin-Rhodamine-110 substrate
Format: biochemical
Conditions: 0.25 nM His-His-USP7 (aa208-560, [C315A]); compound 60 minutes at 30° C.; 500 nM Ubiquitin-Rhodamine substrate; 11-point curves
Description: USP7 activity was measured using Rhodamine-110 c-terminal labelled Ubiquitin as a substrate (Viva Biosciences). Incubation with USP7 results in the release of Rhodamine-110 leading to an increase in fluorescence which can be used in the continuous measurement of USP7 activity.
The USP7 reactions were performed in a 50 μL volume, in 384 well black solid low binding plates (Corning #3575). The reaction buffer consisted of 100 mM Bicine pH 8.0, 0.01% TritonX 100, 1 mM TCEP, and 10% DMSO.
0.25 nM His-His-USP7 (aa208-560, [C315A]) was incubated with compound (final concentration 10% DMSO) for 60 minutes at 30° C. The reaction was then initiated by the addition of 500 nM Ubiquitin-Rhodamine-10 substrate and the plate read every 3 minutes for 21 minutes to measure the release of Rhodamine-110. Fluorescence Intensity (FLINT) readings were measured using a Biomek Neo plate reader (Ex. 485 nm. Em. 535 nm).
The inhibition of increasing doses of compound was expressed as a percentage reduction in kinetic rate compared to the kinetic rates established between ‘DMSO only’ and ‘total inhibition’ controls (no USP7). The inhibitory concentrations that gave a 50% reduction in kinetic rate (IC50) were determined, from 11-point dose response curves, in XL-Fit using a 4-Parameter Logistic Model (Sigmoidal Dose-Response Model).

T1 sequence (Q93009 208-560 C315A): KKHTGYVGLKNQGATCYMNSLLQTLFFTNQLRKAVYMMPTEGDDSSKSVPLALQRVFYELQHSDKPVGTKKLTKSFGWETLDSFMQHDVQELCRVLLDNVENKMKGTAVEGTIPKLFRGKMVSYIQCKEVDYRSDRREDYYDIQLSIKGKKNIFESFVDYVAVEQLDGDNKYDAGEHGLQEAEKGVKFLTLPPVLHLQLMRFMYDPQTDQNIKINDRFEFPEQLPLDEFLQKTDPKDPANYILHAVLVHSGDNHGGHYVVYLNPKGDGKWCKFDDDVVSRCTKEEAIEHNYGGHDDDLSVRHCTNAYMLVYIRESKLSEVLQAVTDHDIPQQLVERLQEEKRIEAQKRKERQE

SMILES | IC50 [µM]
COc1ccc(-n2ccc3c(=O)n(CC4(O)CCN(C(=O)[C@@H]5CCCC[C@H]5n5cccc5)CC4)cnc32)cc1 (single isomer, unassigned) [Example 16, 3-[[4-hydroxy-1-[trans-2-pyrrol-1-ylcyclohexanecarbonyl]-4-piperidyl]methyl]-7-(4-methoxyphenyl)pyrrolo[2,3-d]pyrimidin-4-one] | 2.97
O=C([C@@H]1OCCO[C@@H]1c1ccccc1)N1CCC(O)(Cn2cnc3c(ccn3-c3ccccc3)c2=O)CC1 (single isomer, unassigned) [Example 6, 3-[[4-hydroxy-1-[cis-3-phenyl-1,4-dioxane-2-carbonyl]-4-piperidyl]methyl]-7-phenyl-pyrrolo[2,3-d]pyrimidin-4-one] | 28
COc1ccc(-n2ccc3c(=O)n(CC4(O)CCN(C(=O)[C@@H]5OCCO[C@@H]5c5ccccc5)CC4)cnc32)cc1 (single isomer, unassigned) [Example 8, 3-[[4-hydroxy-1-[cis-3-phenyl-1,4-dioxane-2-carbonyl]-4-piperidyl]methyl]-7-(4-methoxyphenyl)pyrrolo[2,3-d]pyrimidin-4-one] | 13.3
O=C(C1CCCC(O)C1c1ccccc1)N1CCC(O)(Cn2cnc3c(ccn3-c3ccccc3)c2=O)CC1 (single isomer, unassigned) [Example 55, (1S,2S,3R or 1R,2R,3S)-3-[[4-hydroxy-1-[3-hydroxy-2-phenyl-cyclohexanecarbonyl]-4-piperidyl]methyl]-7-phenyl-pyrrolo[2,3-d]pyrimidin-4-one] | 0.113
COc1ccc(-n2ccc3c(=O)n(CC4(O)CCN(C(=O)[C@@H]5CCCO[C@H]5c5ccccc5)CC4)cnc32)cc1 (single isomer, unassigned) [Example 45, 3-[[4-hydroxy-1-[trans-2-phenyltetrahydropyran-3-carbonyl]-4-piperidyl]methyl]-7-(4-methoxyphenyl)pyrrolo[2,3-d]pyrimidin-4-one] | 0.086
O=C([C@@H]1CCCO[C@H]1c1ccccc1)N1CCC(O)(Cn2cnc3c(ccn3-c3ccccc3)c2=O)CC1 (single isomer, unassigned) [Example 26, 3-[[4-hydroxy-1-[trans-2-phenyltetrahydropyran-3-carbonyl]-4-piperidyl]methyl]-7-phenyl-pyrrolo[2,3-d]pyrimidin-4-one] | 0.067
Cn1ccc2c(=O)n(CC3(O)CCN(C(=O)[C@@H]4CCCC[C@H]4c4ccsc4)CC3)cnc21 (relative stereo) [Example 2, 3-[[4-hydroxy-1-[trans-2-(3-thienyl)cyclohexanecarbonyl]-4-piperidyl]methyl]-7-methyl-pyrrolo[2,3-d]pyrimidin-4-one] | 0.439
COc1ccc(-n2ccc3c(=O)n(CC4(O)CCN(C(=O)[C@@H]5CCCC[C@H]5c5ccc(F)cc5)CC4)cnc32)cc1 (single isomer, unassigned) [Example 40, 3-[[1-[trans-2-(4-fluorophenyl)cyclohexanecarbonyl]-4-hydroxy-4-piperidyl]methyl]-7-(4-methoxyphenyl)pyrrolo[2,3-d]pyrimidin-4-one] | 0.883

Now from value to compound:

IC50 [µM] | SMILES
0.137 | O=C([C@@H]1CCCC[C@H]1c1ccccc1)N1CCC(O)(Cn2cnc3sccc3c2=O)CC1 (relative stereo) [Example 91, 3-[[4-hydroxy-1-(trans-2-phenylcyclohexanecarbonyl)-4-piperidyl]methyl]thieno[2,3-d]pyrimidin-4-one]
20.3 | Cn1ccnc1[C@@H]1CCCC[C@H]1C(=O)N1CCC(O)(Cn2cnc3c(ccn3-c3ccccc3)c2=O)CC1 (single isomer, unassigned) [Example 58, 3-[[4-hydroxy-1-[trans-2-(1-methylimidazol-2-yl)cyclohexanecarbonyl]-4-piperidyl]methyl]-7-phenyl-pyrrolo[2,3-d]pyrimidin-4-one]
2.55 | O=C(C1CCCC(O)C1c1ccccc1)N1CCC(O)(Cn2cnc3c(ccn3-c3ccccc3)c2=O)CC1 (single isomer, unassigned) [Example 56, (1S,2S,3S or 1R,2R,3R)-3-[[4-hydroxy-1-[3-hydroxy-2-phenyl-cyclohexanecarbonyl]-4-piperidyl]methyl]-7-phenyl-pyrrolo[2,3-d]pyrimidin-4-one]
10.1 | O=C([C@@H]1CCC(F)(F)C[C@H]1c1cscn1)N1CCC(O)(Cn2cnc3c(-c4ccccc4)scc3c2=O)CC1 (single isomer, unassigned) [Example 82, 3-[[1-[trans-4,4-difluoro-2-thiazol-4-yl-cyclohexanecarbonyl]-4-hydroxy-4-piperidyl]methyl]-7-phenyl-thieno[3,4-d]pyrimidin-4-one]
28.4 | Cn1ccnc1[C@@H]1CCCC[C@H]1C(=O)N1CCC(O)(Cn2cnc3c(ccn3-c3ccccc3)c2=O)CC1 (single isomer, unassigned) [Example 57, 3-[[4-hydroxy-1-[trans-2-(1-methylimidazol-2-yl)cyclohexanecarbonyl]-4-piperidyl]methyl]-7-phenyl-pyrrolo[2,3-d]pyrimidin-4-one]
0.102 | COc1ccc(C(=O)Nc2ccc3ncn(CC4(O)CCN(C(=O)[C@@H]5CCCC[C@H]5c5ccccc5)CC4)c(=O)c3n2)cc1 (relative stereo) [Example 107, N-[3-[[4-hydroxy-1-(trans-2-phenylcyclohexanecarbonyl)-4-piperidyl]methyl]-4-oxo-pyrido[3,2-d]pyrimidin-6-yl]-4-methoxy-benzamide]
0.268 | CC1(C)CC[C@@H](C(=O)N2CCC(O)(Cn3cnc4c(-c5ccccc5)scc4c3=O)CC2)[C@H](c2ccccc2)C1 (single isomer, unassigned) [Example 99, 3-[[1-(trans-4,4-dimethyl-2-phenyl-cyclohexanecarbonyl)-4-hydroxy-4-piperidyl]methyl]-7-phenyl-thieno[3,4-d]pyrimidin-4-one]
0.0996 | O=C(Nc1ccc2ncn(CC3(O)CCN(C(=O)[C@@H]4CCCC[C@H]4c4ccccc4)CC3)c(=O)c2n1)C1CCOC1 (relative stereo) [Example 101, N-[3-[[4-hydroxy-1-(trans-2-phenylcyclohexanecarbonyl)-4-piperidyl]methyl]-4-oxo-pyrido[3,2-d]pyrimidin-6-yl]tetrahydrofuran-3-carboxamide]
0.0765 | NC(=O)CSCCC(=O)Nc1ccc2ncn(CC3(O)CCN(C(=O)[C@@H]4CCCC[C@H]4c4ccccc4)CC3)c(=O)c2n1 (relative stereo) [Example 108, 3-(2-amino-2-oxo-ethyl)sulfanyl-N-[3-[[4-hydroxy-1-(trans-2-phenylcyclohexanecarbonyl)-4-piperidyl]methyl]-4-oxo-pyrido[3,2-d]pyrimidin-6-yl]propanamide]
0.351 | COc1ccc(CNc2ccc3ncn(CC4(O)CCN(C(=O)[C@@H]5CCCC[C@H]5c5ccccc5)CC4)c(=O)c3n2)cc1 (relative stereo) [Example 94, 3-[[4-hydroxy-1-(trans-2-phenylcyclohexanecarbonyl)-4-piperidyl]methyl]-6-[(4-methoxyphenyl)methylamino]pyrido[3,2-d]pyrimidin-4-one]
10.5 | COc1ccc(-n2ccc3c(=O)n(CC4(O)CCN(C(=O)C5CCCCC5c5nccn5C)CC4)cnc32)cc1 (single isomer, unassigned) [Example 69, 3-[[4-hydroxy-1-trans-2-(1-methylimidazol-2-yl)cyclohexanecarbonyl]-4-piperidyl]methyl-7-(4-methoxyphenyl)pyrrolo[2,3-d]pyrimidin-4-one]
